Measured values taken from patent US9422274B2, “Oxazolidinone derivatives and composition for preventing or treating hepatitis C containing the same” (KOREA INSTITUTE OF SCIENCE AND TECHNOLOGY, priority 2013, dated 2016).

Columns and labels:
Hepatitis C virus [1] = assay: Anti-viral activity test (HCVcc, Type 2a), JFH 5a-Rluc luciferase in Huh7.5.1 cell line; assay type: cell-based; conditions: for inhibition: Huh-7.5.1, luciferase activity, negative control = 100%, Huh7.5.1 cells infected with JFH 5a-Rluc, read-out: HCV inhibition rate %; for EC50: Huh-7.5.1, read-out: EC50 (concentration of compound to inhibit the 50% of viral growth)
Method: The inhibitory effect of the oxazolidinone compounds on HCV replicon and NS5A were HCV was tested by the method disclosed in KR-A 10-2010-0007937 or US-A 2010/0215696.
The cell lines containing replicon were prepared by preparing JFH 5a-Rluc (plasmid expressing Renilla luciferase reporter protein) RNA according to the method disclosed in the documents, introducing the JFH 5a-Rluc RNA into host cell lines (Huh7.5.1 cell line) by electroporation and infecting the host cell lines (Zhnog et al., Proc. Natl. Acad. Sci. USA, 102, 9294-9299). After the infected cell lines were cultured with or without the treatment of the oxazolidinone compound, the luciferase activity was detected to obtain the inhibitory effect of […] replicon replication. EC50) of the compound was determined by performing the test at various concentrations of the compound.
The compounds Example 1 to 17 were tested for anti-viral activity on Hepatitis C virus, according to the method of KR10-2010-0007937 (published on Jan. 22, 2010) or US2010/0215696 (published on Aug. 26, 2010).
The cell lines containing replicon were prepared by preparing JFH 5a-Rluc (plasmid expressing Renilla luciferase reporter protein) RNA according to the method disclosed in the documents, introducing the JFH 5a-Rluc RNA into host cell lines (Huh7.5.1 cell line) by electroporation and infecting the host cell lines (Zhnog et al., Proc. Natl. Acad. Sci. USA, 102, 9294-9299). After the infected cell lines were cultured with or without the treatment of 1 mM of the oxazolidinone compounds of Examples 1 to 17, the host cell lines were obtained on 1, 2 and 3 days after treatment, and the luciferase activity produced from the host cells was measured.
The luciferase activity of negative control which was not treated with the oxazolidinone compound is set to 100%. At various amounts of the oxazolidinone compounds, the luciferase activities were calculated based on the negative control to obtain the inhibition rate of HCV (%). The positive control was Interferon (INF)(Sigma, SRP4595).

Hepatitis C virus [2] = assay: as above; assay type: cell-based, Hepatitis C virus (HCVcc; conditions: for inhibition at 0.001 µM: Hepatitis C virus, Huh-7.5.1, read-out: inhibition rate; for remnant HCV amount: treated at a concentration of 1 nM

In the case of `COC(=O)N[C@H](C(=O)N1CCC[C@H]1c1ncc(-c2ccc(-c3ccc(N4C[C@H](Cn5cc(CO)nn5)OC4=O)cc3F)cc2)[nH]1)C(C)C` [Example 5, Methyl ((S)-1-((S)-2-(5-(2′-fluoro-4′-((R)-5-((4-(hydroxymethyl)-1H-1,2,3-triazol-1-yl)methyl)-2-oxooxazolidin-3-yl)-[1,1′-biphenyl]-4-yl)-1H-imidazol-2-yl)pyrrolidin-1-yl)-3-methyl-1-oxobutan-2-yl)carbamate], the inhibition (Hepatitis C virus [1]) is reported as 95.8%.
In the case of `CC(C)(C)OC(=O)N1CCC[C@H]1c1ncc(-c2ccc(-c3ccc(N4C[C@H](Cn5ccnn5)OC4=O)cc3F)cc2)[nH]1` [Example 1, tert-Butyl(S)-2-(5-(4′-((R)-5-((1H-1,2,3-triazol-1-yl)methyl)-2-oxooxazolidin-3-yl)-2′-fluoro-[1,1′-biphenyl]-4-yl)-1H-imidazol-2-yl)pyrrolidine-1-carboxylate], the inhibition (Hepatitis C virus [1]) is reported as 31.7%.
With `COC(=O)N[C@H](C(=O)N1CCC[C@H]1c1ncc(-c2ccc(-c3ccc(N4C[C@H](CNC(C)=O)OC4=O)cc3F)cc2)[nH]1)C(C)C` [Example 12, Methyl ((S)-1-((S)-2-(5-(4′-((S)-5-(acetamidomethyl)-2-oxooxazolidin-3-yl)-2′-fluoro-[1,1′-biphenyl]-4-yl)-1H-imidazol-2-yl)pyrrolidin-1-yl)-3-methyl-1-oxobutan-2-yl)carbamate] the inhibition at 0.001 µM (Hepatitis C virus [2]) was 27%, the “remnant HCV amount” value (Hepatitis C virus [2]) was 73% and the inhibition (Hepatitis C virus [1]) was 99.8%.
In the case of `COC(=O)N[C@H](C(=O)N1CCC[C@H]1c1ncc(-c2ccc(-c3ccc(N4C[C@H](Cn5cc(CNC(C)=O)nn5)OC4=O)cc3F)cc2)[nH]1)C(C)C` [Example 10, Methyl ((S)-1-((S)-2-(5-(4′-((R)-5-((4-(acetamidomethyl)-1H-1,2,3-triazol-1-yl)methyl)-2-oxooxazolidin-3-yl)-2′-fluoro-[1,1′-biphenyl]-4-yl)-1H-imidazol-2-yl)pyrrolidin-1-yl)-3-methyl-1-oxobutan-2-yl)carbamate], the inhibition (Hepatitis C virus [1]) is reported as 32.8%.
For `COC(=O)N[C@H](C(=O)N1CCC[C@H]1c1ncc(-c2ccc(-c3ccc(N4C[C@H](Cn5cc(COC(C)=O)nn5)OC4=O)cc3F)cc2)[nH]1)C(C)C` [Example 8, 1-(((R)-3-(2-Fluoro-4′-(2-((S)-1-((methoxycarbonyl)-L-valyl)pyrrolidin-2-yl)-1H-imidazol-5-yl)-[1,1′-biphenyl]-4-yl)-2-oxooxazolidin-5-yl)methyl)-1H-1,2,3-triazol-4-yl)methyl acetate], the inhibition (Hepatitis C virus [1]) was 79.8%.
Molecule `COC(=O)N[C@H](C(=O)N1CCC[C@H]1c1ncc(-c2ccc(-c3ccc(N4C[C@H](Cn5cc(CCO)nn5)OC4=O)cc3F)cc2)[nH]1)C(C)C` [Example 6, Methyl ((S)-1-((S)-2-(5-(2′-fluoro-4′-((R)-5-((4-(2-hydroxyethyl)-1H-1,2,3-triazol-1-yl)methyl)-2-oxooxazolidin-3-yl)-[1,1′-biphenyl]-4-yl)-1H-imidazol-2-yl)pyrrolidin-1-yl)-3-methyl-1-oxobutan-2-yl)carbamate] has an inhibition (Hepatitis C virus [1]) of 84.4%.
For `COC(=O)N[C@H](C(=O)N1CCC[C@H]1c1ncc(-c2ccc(-c3ccc(N4C[C@H](Cn5ccnn5)OC4=O)cc3F)cc2)[nH]1)C(C)C` [Example 3, Methyl ((S)-1-((S)-2-(5-(4′-((R)-5-((1H-1,2,3-triazol-1-yl)methyl)-2-oxooxazolidin-3-yl)-2′-fluoro-[1,1′-biphenyl]-4-yl)-1H-imidazol-2-yl)pyrrolidin-1-yl)-3-methyl-1-oxobutan-2-yl)carbamate], the inhibition at 0.001 µM (Hepatitis C virus [2]) was 78.9%, the “remnant HCV amount” value (Hepatitis C virus [2]) was 21.1% and the inhibition (Hepatitis C virus [1]) was 99.8%. The EC50 (Hepatitis C virus [1]) was 0.98 nM.
In the case of `CC(=O)NC[C@H]1CN(c2ccc(-c3ccc(-c4cnc([C@@H]5CCCN5C(C)=O)[nH]4)cc3)c(F)c2)C(=O)O1` [Example 14, N—(((S)-3-(4′-(2-((S)-1-acetylpyrrolidin-2-yl)-H-imidazol-5-yl)-2-fluoro-[1,1′-biphenyl]-4-yl)-2-oxooxazolidin-5-yl)methyl)acetamide], the inhibition (Hepatitis C virus [1]) is reported as 28%.
For `COC(=O)N[C@H](C(=O)NC[C@H]1CN(c2ccc(-c3ccc(-c4cnc([C@@H]5CCCN5C(=O)[C@@H](NC(=O)OC)C(C)C)[nH]4)cc3)c(F)c2)C(=O)O1)C(C)C` [Example 15, Methyl ((S)-1-((((S)-3-(2-fluoro-4′-(2-((S)-1-((methoxycarbonyl)-L-valyl)pyrrolidin-2-yl)-1H-imidazol-5-yl)-[1,1′-biphenyl]-4-yl)-2-oxooxazolidin-5-yl)methyl)amino)-3-methyl-1-oxobutan-2-yl)carbamate], the inhibition at 0.001 µM (Hepatitis C virus [2]) was 44.3%, the “remnant HCV amount” value (Hepatitis C virus [2]) was 55.7% and the inhibition (Hepatitis C virus [1]) was 99.8%. For the same molecule, the EC50 (Hepatitis C virus [1]) was 1 nM.
`COC(=O)N[C@H](C(=O)N1CCC[C@H]1c1ncc(-c2ccc(-c3ccc(N4C[C@H](Cn5cc(COCc6ccccc6)nn5)OC4=O)cc3F)cc2)[nH]1)C(C)C` [Example 9, Methyl ((S)-1-((S)-2-(5-(4′-((R)-5-((4-((benzyloxy)methyl)-1H-1,2,3-triazol-1-yl)methyl)-2-oxooxazolidin-3-yl)-2′-fluoro-[1,1′-biphenyl]-4-yl)-1H-imidazol-2-yl)pyrrolidin-1-yl)-3-methyl-1-oxobutan-2-yl)carbamate] was tested, and the inhibition at 0.001 µM (Hepatitis C virus [2]) was 97%, the “remnant HCV amount” value (Hepatitis C virus [2]) was 3.0% and the inhibition (Hepatitis C virus [1]) was 97.3%. The EC50 (Hepatitis C virus [1]) was 17.4 nM.
`COC(=O)N[C@H](C(=O)N1CCC[C@H]1c1ncc(-c2ccc(-c3ccc(N4C[C@H](Cn5ccnn5)OC4=O)cc3F)cc2)[nH]1)c1ccccc1` [Example 4, methyl ((S)-2-((S)-2-(5-(4′-((R)-5-((1H-1,2,3-triazol-1-yl)methyl)-2-oxooxazolidin-3-yl)-2′-fluoro-[1,1′-biphenyl]-4-yl)-1H-imidazol-2-yl)pyrrolidin-1-yl)-2-oxo-1-phenylethyl)carbamate] was tested, and the inhibition (Hepatitis C virus [1]) was 95.2%.
Work on `CC(=O)NC[C@H]1CN(c2ccc(-c3ccc(-c4cnc([C@@H]5CCCN5C(=O)OC(C)(C)C)[nH]4)cc3)c(F)c2)C(=O)O1` [Example 13, tert-Butyl (S)-2-(5-(4′-((S)-5-(acetamidomethyl)-2-oxooxazolidin-3-yl)-2′-fluoro-[1,1′-biphenyl]-4-yl)-1H-imidazol-2-yl)pyrrolidine-1-carboxylate] yielded an inhibition (Hepatitis C virus [1]) of 46.2%.
Molecule `COC(=O)N[C@H](C(=O)NC[C@H]1CN(c2ccc(-c3ccc(-c4cnc([C@@H]5CCCN5C(C)=O)[nH]4)cc3)c(F)c2)C(=O)O1)C(C)C` [Example 17, Methyl ((S)-1-((((S)-3-(4′-(2-((S)-1-acetylpyrrolidin-2-yl)-1H-imidazol-5-yl)-2-fluoro-[1,1′-biphenyl]-4-yl)-2-oxooxazolidin-5-yl)methyl)amino)-3-methyl-1-oxobutan-2-yl)carbamate] has an inhibition (Hepatitis C virus [1]) of 38.1%.
In the case of `COCc1cn(C[C@H]2CN(c3ccc(-c4ccc(-c5cnc([C@@H]6CCCN6C(=O)[C@@H](NC(=O)OC)C(C)C)[nH]5)cc4)c(F)c3)C(=O)O2)nn1` [Example 7, Methyl ((S)-1-((S)-2-(5-(2′-fluoro-4′-((R)-5-((4-(methoxymethyl)-1H-1,2,3-triazol-1-yl)methyl)-2-oxooxazolidin-3-yl)-[1,1′-biphenyl]-4-yl)-1H-imidazol-2-yl)pyrrolidin-1-yl)-3-methyl-1-oxobutan-2-yl)carbamate], the inhibition (Hepatitis C virus [1]) is reported as 83.3%.
`CC(=O)N1CCC[C@H]1c1ncc(-c2ccc(-c3ccc(N4C[C@H](Cn5ccnn5)OC4=O)cc3F)cc2)[nH]1` [Example 2, (R)-5-((1H-1,2,3-Triazol-1-yl)methyl)-3-(4′-(2-((S)-1-acetylpyrrolidin-2-yl)-1H-imidazol-5-yl)-2-fluoro-[1,1′-biphenyl]-4-yl)oxazolidin-2-one] gave an inhibition (Hepatitis C virus [1]) of 32%.
In the case of `COC(=O)N[C@H](C(=O)N1CCC[C@H]1c1ncc(-c2ccc(-c3ccc(N4C[C@H](Cn5cc(-c6ccccc6)nn5)OC4=O)cc3F)cc2)[nH]1)C(C)C` [Example 11, Methyl ((S)-1-((S)-2-(5-(2′-fluoro-4′-((R)-2-oxo-5-((4-phenyl-1H-1,2,3-triazol-1-yl)methyl)oxazolidin-3-yl)-[1,1′-biphenyl]-4-yl)-1H-imidazol-2-yl)pyrrolidin-1-yl)-3-methyl-1-oxobutan-2-yl)carbamate], the inhibition at 0.001 µM (Hepatitis C virus [2]) is reported as 95.2%, the “remnant HCV amount” value (Hepatitis C virus [2]) is reported as 6.8% and the inhibition (Hepatitis C virus [1]) is reported as 96.7%.
Work on `COC(=O)N[C@H](C(=O)NC[C@H]1CN(c2ccc(-c3ccc(-c4cnc([C@@H]5CCCN5C(=O)OC(C)(C)C)[nH]4)cc3)c(F)c2)C(=O)O1)C(C)C` [Example 16, tert-Butyl (S)-2-(5-(2′-fluoro-4′-((S)-5-(((S)-2-((methoxycarbonyl)amino)-3-methylbutanamido)methyl)-2-oxooxazolidin-3-yl)-[1,1-biphenyl]-4-yl)-1H-imidazol-2-yl)pyrrolidine-1-carboxylate] yielded an inhibition (Hepatitis C virus [1]) of 58%.
